The text below walks through data of patent US9708259B2 (Hoffmann-La Roche Inc., priority 2013, dated 2017).

Where a chain is given by its changes, count along the chain named. Like-named read-outs stand apart in the source and are kept apart here.

One experiment deals with T1, ratM1 (Rattus norvegicus, UniProt P08482).
T1 construct: expressed in transfected cells; host or cells: CHO cells (stated generally for the assay, not specifically for rat M1)
T1 sequence (P08482 1-460): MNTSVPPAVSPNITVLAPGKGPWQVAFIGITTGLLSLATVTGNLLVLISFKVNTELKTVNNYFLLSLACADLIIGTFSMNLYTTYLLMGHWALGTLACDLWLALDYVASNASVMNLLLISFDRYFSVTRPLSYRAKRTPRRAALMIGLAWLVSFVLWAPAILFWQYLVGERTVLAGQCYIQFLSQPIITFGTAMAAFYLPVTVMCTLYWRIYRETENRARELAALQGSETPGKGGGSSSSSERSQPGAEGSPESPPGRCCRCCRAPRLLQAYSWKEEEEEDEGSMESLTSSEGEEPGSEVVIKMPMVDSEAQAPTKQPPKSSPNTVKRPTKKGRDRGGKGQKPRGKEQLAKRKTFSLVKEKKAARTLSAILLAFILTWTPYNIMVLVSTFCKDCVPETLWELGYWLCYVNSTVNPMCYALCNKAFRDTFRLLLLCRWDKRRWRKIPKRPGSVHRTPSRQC
Kind of experiment: M1 PAM assay (FLIPR intracellular calcium), rat M1. Type of experiment: cell-based. A general note: Calcium flux is commonly read through the fluorescence of an indicator in the cells.

The next experiment deals with T2, human M1 (Homo sapiens, UniProt P11229).
T2 construct: expressed in transfected cells; host or cells: CHO cells
T2 sequence (P11229 1-460): T1 sequence (P08482 1-460) with V5A, S254T, S309P, K320R, G337A, V413I
The experiment is described as follows: M1 PAM assay (FLIPR intracellular calcium), human M1. Format: cell-based. The protocol:
The assay study the effect of several concentrations of test compounds on basal or acetylcholine-stimulated Ca^2+ levels using FLIPR.
CHO human M1 are plated the day before the experiments at 2×10^5 cells/ml in PDL BioCoat 96 well black/clear plate (Becton 35 4640). The cells are grown at 37° C. and 5% CO2 in the following medium: F12 Nut Mix (Gibco 21765), 10% FCS heat inactivated (GIBCO 16000-044), 1% Pen Strep (Gibco,15140) and 200 μg/ml Geneticin (Gibco 11811). On the day of the experiment, the medium was removed and replaced by […] of dye loading buffer containing Hanks Balanced Salt solution (HBSS, 14065-049, Gibco) with 20 mM HEPES (Gibco 15630-056), 2 mM Probenicid (Sigma P8761), […] ester (Molecular Probes F-14202), 10% Pluronic acid Molecular Probes P-3000) pH=7.4 and incubated at 37° C. After 60 minutes extracellular dye was removed and the cells were washed five times with FLIPR buffer containing HBSS (Gibco 14065-049) with 20 mM HEPES (Gibco, 15630-056), 2 mM Probenicid (Sigma P8761) pre-warmed at 37° C. using and Ebml cell washer leaving […] of FLIPR buffer in each well. The cell plate and the diluted compounds (1% DMSO final concentration) are placed on the platform of the FLIPR and the door closed. A signal test to check background fluorescence and basal fluorescence signal is performed. Laser intensity is adjusted if necessary. Two minutes preincubation with the diluted test compounds is provide to determine any agonist activity on the M1 receptor by comparison to 30 nM Acetylcholine control. In order to determine any modulator activity the diluted compounds were added to cells and after two minutes preincubation, the EC20 of acetylcholine is added followed by another two minutes preincubation before the measurement of intracellular Ca^2+ with a FLIPR (Molecular Devices).

[1] abbreviates: rat M1, FLIPR Ca2+, second value of the cell, read-out: ratM1 EC50.
The mark [2] stands for this setting: CHO human M1 cells, FLIPR Ca2+, with EC20 of acetylcholine, first value of the cell, read-out: hM1 EC50.

As for `Cn1cc(-c2ccc(Cn3nc(C(=O)N[C@H]4CCCC[C@@H]4O)c4c(F)ccc(F)c43)cn2)cn1` [Example 75, 4,7-difluoro-N-((1S,2S)-2-hydroxycyclohexanol)-1-((6-(1-methyl-1H-pyrazol-4-yl)yridine-3-yl)methyl)-1H-indazole-3-carboxamide], the EC50 (commonly the midpoint of the concentration-response curve) on ratM1 (setting [1]) amounted to 46 nM; at human M1 (setting [2]), 40.1 nM.
As for `O=C(N[C@H]1CCOC[C@@H]1O)c1cn(Cc2ccc(N3CCCC3=O)cc2)c2cccc(F)c12` [Example 84, 4-fluoro-N-((3R,4S)-3-hydroxytetrahydro-2H-pyran-4-yl)-1-(4-(2-oxopyrrolidin-1-yl)benzyl)-1H-indole-3-carboxamide], the concentration giving a half-maximal response (EC50) amounted to 169 nM at ratM1 (setting [1]) and 182 nM at human M1 (setting [2]).
With `Cn1cc(-c2ccc(Cn3cc(C(=O)N[C@@H]4CCCC(F)(F)[C@H]4O)c4c(F)cccc43)cc2)cn1` [Example 100, N-((1R,2S)-3,3-difluoro-2-hydroxycyclohexyl)-4-fluoro-1-(4-(1-methyl-1H-pyrazol-4-yl)benzyl)-1H-indole-3-carboxamide], the concentration giving a half-maximal response (EC50) at ratM1 (setting [1]) worked out at 15 nM; at human M1 (setting [2]) it was 4 nM.
For `Cn1cc(-c2ccc(Cn3cc(C(=O)N[C@H]4CCCC[C@@H]4O)c4c(F)cccc43)cn2)cn1` [Example 30, 4-fluoro-N-((1S,2S)-2-hydroxycyclohexyl)-1-((6-(1-methyl-1H-pyrazol-4-yl)pyridine-3-yl)methyl)-1H-indole-3-carboxamide] the same measures were 14.1 nM and 13.2 nM.
In the case of `Cn1ncc2cc(Cn3cc(C(=O)NC4CCOCC4)c4c(F)cccc43)ccc21` [Example 66, 4-fluoro-1-((1-methyl-1H-indazol-5-yl)methyl)-N-(tetrahydro-2H-pyran-4-yl)-1H-indole-3-carboxamide], the results for the EC50 at ratM1 and at human M1 were 412 nM and 216 nM, respectively.
On to `CNC(=O)c1ccc(Cn2cc(C(=O)NC3CCCCC3F)c3c(F)cccc32)cc1` (stereo not shown) [Example 121, 4-fluoro-N-(2-fluorocyclohexyl)-1-[[4-(methylcarbamoyl)phenyl]methyl]indole-3-carboxamide], for which the half-maximal effective concentration (EC50) on ratM1 (setting [1]) was 17 nM; at human M1 (setting [2]) it was 6 nM.
On to `COc1ccc(Cn2cc(C(=O)N[C@H]3CCCC[C@@H]3O)c3c(F)cccc32)cc1F` [Example 33, 4-fluoro-1-(3-fluoro-4-methoxybenzyl)-N-((1S,2S)-2-hydroxycyclohexyl)-1H-indole-3-carboxamide], for which the results for the half-maximal effective concentration (EC50) on ratM1 and at human M1 were 222 nM and 104 nM, respectively.
Consider `Cc1cn(-c2ccc(Cn3cc(C(=O)N[C@H]4CCOC[C@@H]4O)c4c(F)cccc43)cc2)cn1` (single isomer, unassigned) [Example 51, 4-fluoro-N-((3R,4S) or (3S,4R)-3-hydroxytetrahydro-2H-pyran-4-yl)-1-(4-(4-methyl-1H-imidazol-1-yl)benzyl)-1H-indole-3-carboxamide], for which the EC50 on ratM1 (setting [1]) stood at 11.2 nM; at human M1 (setting [2]), 12.3 nM.
Regarding `Cn1cc(-c2ccc(Cn3cc(C(=O)N[C@H]4CCCC[C@@H]4O)c4c(F)ccc(C5CC5)c43)cc2)cn1` [Example 105, 7-cyclopropyl-4-fluoro-N-((1S,2S)-2-hydroxycyclohexyl)-1-(4-(1-methyl-1H-pyrazol-4-yl)benzyl)-1H-indole-3-carboxamide], the values for the EC50 on ratM1 (setting [1]) and at human M1 (setting [2]) were 627 nM and 288 nM, respectively.
As to `CNC(=O)c1ccc(Cn2cc(C(=O)NC3CCCCC3(F)F)c3c(F)cccc32)cc1` (stereo not shown) [Example 120, N-(2,2-difluorocyclohexyl)-4-fluoro-1-[[4-(methylcarbamoyl)phenyl]methyl]indole-3-carboxamide], the EC50 at ratM1 (setting [1]) amounted to 32 nM; at human M1 (setting [2]) it was 15 nM.
The like results for `CNC(=O)c1ccc(Cn2cc(C(=O)NCC3CC3)c3c(F)cccc32)cc1` [Example 116, N-(cyclopropylmethyl)-4-fluoro-1-[[4-(methylcarbamoyl)phenyl]methyl]indole-3-carboxamide] were, in that order, 320 nM and 74 nM.
The like results for `CNC(=O)c1ccc(Cn2cc(C(=O)NC3CCOCC3)c3c(F)cccc32)c(F)c1` [Example 164, 4-Fluoro-1-(2-fluoro-4-(methylcarbamoyl)benzyl)-N-(tetrahydro-2H-pyran-4-yl)-1H-indole-3-carboxamide] were, in that order, 88 nM and 48 nM.
For `O=C(N[C@H]1CCCC[C@@H]1O)c1cn(Cc2ccc(-c3cnco3)cc2)c2cccc(F)c12` [Example 137, 4-fluoro-N-((1S,2S)-2-hydroxycyclohexyl)-1-(4-(oxazol-5-yl)benzyl)-1H-indole-3-carboxamide] the same measures were 34 nM and 9 nM.
Turning to `Cc1ccc(F)c2c(C(=O)N[C@H]3CCCC[C@@H]3O)cn(Cc3ccc(-c4cnn(C)c4)cc3)c12` [Example 46, 4-fluoro-N-((1S,2S)-2-hydroxycyclohexyl)-7-methyl-1-(4-(1-methyl-1H-pyrazol-4-yl)benzyl)-1H-indole-3-carboxamide], the concentration giving a half-maximal response (EC50) turned out to be 22.2 nM at ratM1 (setting [1]) and 10.3 nM on human M1 (setting [2]).
As to `O=C(NC1CC1)c1ccc(Cn2cc(C(=O)N[C@H]3CCCC[C@@H]3O)c3c(F)cccc32)cc1` [Example 146, 1-(4-(cyclopropylcarbamoyl)benzyl)-4-fluoro-N-((1S,2S)-2-hydroxycyclohexyl)-1H-indole-3-carboxamide], the values for the EC50 at ratM1 (setting [1]) and at human M1 (setting [2]) were 5 nM and 2 nM, respectively.
With `Cn1cc(-c2ccc(Cn3cc(C(=O)N[C@H]4CCOC[C@@H]4O)c4c(F)c(F)c(F)c(F)c43)cc2)cn1` (single isomer, unassigned) [Example 63, 4,5,6,7-Tetrafluoro-N-((3R,4S) or (3S,4R)-3-hydroxytetrahydro-2H-pyran-4-yl)-1-(4-(1-methyl-1H-pyrazol-4-yl)benzyl)-1H-indole-3-carboxamide], the EC50 at ratM1 (setting [1]) amounted to 54.2 nM; at human M1 (setting [2]), 19.6 nM.
As to `O=C(N[C@H]1CCCC[C@@H]1O)c1cn(Cc2ccc(-c3nccs3)cn2)c2cccc(F)c12` [Example 141, 4-fluoro-N-((1S,2S)-2-hydroxycyclohexyl)-1-((5-(thiazol-2-yl)pyridin-2-yl)methyl)-1H-indole-3-carboxamide], the figures for the EC50 at ratM1 (setting [1]) and at human M1 (setting [2]) were 453 nM and 155 nM, respectively.
On to `Cn1cc(-c2ccc(Cn3cc(C(=O)N[C@H]4CCCC[C@@H]4O)c4c(F)c(F)c(F)c(F)c43)cc2)cn1` [Example 53, 4,5,6,7-tetrafluoro-N-((1S,2S)-2-hydroxycyclohexyl)-1-(4-(1-methyl-1H-pyrazol-4-yl)benzyl)-1H-indole-3-carboxamide], for which the EC50 on ratM1 (setting [1]) worked out at 47.5 nM; on human M1 (setting [2]), 44.1 nM.
As to `O=C(N[C@H]1CCCC[C@@H]1O)c1cn(Cc2ccc(-c3ncccn3)cc2)c2cccc(F)c12` [Example 135, 4-fluoro-N-((1S,2S)-2-hydroxycyclohexyl)-1-(4-(pyrimidin-2-yl)benzyl)-1H-indole-3-carboxamide], the EC50 was 384 nM at ratM1 (setting [1]) and 97 nM at human M1 (setting [2]).
For `O=C(N[C@H]1CCCC[C@@H]1O)c1cn(Cc2ccc(-c3ccccc3)nc2)c2cccc(F)c12` [Example 131, 4-fluoro-N-((1S,2S)-2-hydroxycyclohexyl)-1-((6-phenylpyridin-3-yl)methyl)-1H-indole-3-carboxamide], the concentration giving a half-maximal response (EC50) was determined as 152 nM at ratM1 (setting [1]) and 36 nM at human M1 (setting [2]).
